Data: patent US7582622B2 (N.V. Organon, priority 2003, dated 2009)

Key:
serum LH = experiment: LH suppression assay in mature male castrated rats, p.o.; assay type: in vivo, rat; conditions: for LH-Suppression MAD po: minimal active dose suppressing serum LH for 65%, castrated male rats, p.o. 4 days daily; for oral activity (in words): statement in the introduction, test not named
Description: The in vivo potency of the compounds of the invention was determined in a mature male castrated rat model.
In this model serum LH is high (about 20× fold higher than with intact rats, due to the absence of the negative feedback of testicular testosterone). These rats are p.o. treated for 4 days daily with a given compound of the invention in a suspension fluid of arachis oil or arachis oil +5 or 10% ethanol. Before dosing and 3 hours after the last oral dose blood is collected via tail vein and in the serum LH is determined. Potency (p.o.) of the compounds of the invention (minimal active dose, MAD) is expressed as the amount (mg/kg) of a compound of the invention which suppresses serum LH for 65% (with a 95% confidence interval).
The rat LH Time-Resolved Immuno Fluorometric Assay (TR-IFMA) has been developed in house using home made reagents, a monoclonal catching antibody directed against the β-subunit of human chorion gonadotrophin (hCG, which cross reacts with rat β-subunit) and a biotin labelled detecting antibody (rabbit polydonal antibody directed against the alfa-subunit of recombinant rat LH). Recombinant rat LH was prepared according to known methods, e.g., the method described by Hakola et aL., Molecular & Cellular Endocrinology (1997), 128, 47-56. In this two-site-IFMA, only intact rat LH is determined by a final incubation with streptavidin-europium. The detection in the IFMA is based on fluorescence of the lanthanide europium during a relative long excitation period. The concentration range of rat LH standard is 0.001-10 ng/ml, for optimal accuracy measurements of serum LH serum samples were diluted 8-times with assay buffer (J. I. van Casteren et al., Biol. Reprod. (2000), 62, 886-894).

[1] = biological target: T1, human androgen receptor (hAR) (Homo sapiens, UniProt P10275); experiment: transactivative androgen agonistic activity, CHO cells transfected with hAR, MMTV-luciferase; assay type: cell-based; set-up: Androgenic Activity (%): concentration or dose not given beside the values; conditions: for Androgenic Activity (%): compared with 5α-dihydrotestosterone, CHO-hAR, 16 h, 37° C.
T1 construct: expressed in transfected cells; host or cells: Chinese hamster ovary cells (CHO)
T1 sequence (P10275 1-920): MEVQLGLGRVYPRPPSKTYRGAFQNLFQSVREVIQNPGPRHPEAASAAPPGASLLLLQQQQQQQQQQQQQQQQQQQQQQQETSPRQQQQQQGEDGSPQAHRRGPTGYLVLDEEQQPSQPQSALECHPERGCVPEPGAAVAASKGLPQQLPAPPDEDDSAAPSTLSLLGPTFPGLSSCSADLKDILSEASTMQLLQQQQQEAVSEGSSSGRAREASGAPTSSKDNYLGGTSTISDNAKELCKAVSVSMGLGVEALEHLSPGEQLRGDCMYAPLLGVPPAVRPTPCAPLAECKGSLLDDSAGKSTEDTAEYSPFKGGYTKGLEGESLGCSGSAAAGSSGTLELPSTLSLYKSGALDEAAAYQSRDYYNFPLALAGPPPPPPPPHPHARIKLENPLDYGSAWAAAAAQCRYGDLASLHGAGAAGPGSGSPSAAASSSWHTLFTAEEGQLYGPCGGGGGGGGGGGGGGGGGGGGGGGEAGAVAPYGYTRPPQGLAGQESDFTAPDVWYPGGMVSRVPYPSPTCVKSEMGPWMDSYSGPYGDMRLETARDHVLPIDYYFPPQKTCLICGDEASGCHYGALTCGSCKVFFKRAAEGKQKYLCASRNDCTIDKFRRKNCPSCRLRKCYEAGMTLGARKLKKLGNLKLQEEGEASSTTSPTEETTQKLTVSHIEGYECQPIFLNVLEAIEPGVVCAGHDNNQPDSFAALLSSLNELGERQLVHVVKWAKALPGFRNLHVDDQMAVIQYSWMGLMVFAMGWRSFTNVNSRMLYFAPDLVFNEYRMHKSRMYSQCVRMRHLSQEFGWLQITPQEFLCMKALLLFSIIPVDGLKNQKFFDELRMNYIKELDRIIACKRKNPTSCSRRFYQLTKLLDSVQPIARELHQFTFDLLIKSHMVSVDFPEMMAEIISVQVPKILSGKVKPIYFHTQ
Description: (§1) The transactivative androgen agonistic activity of the compounds of the invention was measured in Chinese hamster ovary cells (CHO) transfected with the human androgen receptor (hAR), in combination with a mouse mammary tumor virus (MMTV), and luciferase receptor gene (incubation time 16 h, temperature 37° C.) and compared with the activity of 5α-dihydrotestosterone [according to the procedure described by Schoonen, W. G. E. J. et aL., Analyt. Biochem. 261, 222-224 (1998)].

[2] = biological target: T2, human progesterone receptor B (hPRB) (Homo sapiens, UniProt P06401); experiment: transactivative progestagenic agonistic activity, CHO cells transfected with hPRB, MMTV-luciferase; assay type: cell-based; set-up: Progestational Activity (%): concentration or dose not given beside the values; conditions: for Progestational Activity (%): compared with (16α)-16-ethyl-21-hydroxy-19-norpregn-4ene-3,20-dione, CHO-hPRB, 16 h, 37° C.; for progestagenic activity (in words): statement in the introduction, test not named
T2 construct: expressed in transfected cells; host or cells: Chinese hamster ovary cells (CHO)
T2 sequence (P06401 1-933): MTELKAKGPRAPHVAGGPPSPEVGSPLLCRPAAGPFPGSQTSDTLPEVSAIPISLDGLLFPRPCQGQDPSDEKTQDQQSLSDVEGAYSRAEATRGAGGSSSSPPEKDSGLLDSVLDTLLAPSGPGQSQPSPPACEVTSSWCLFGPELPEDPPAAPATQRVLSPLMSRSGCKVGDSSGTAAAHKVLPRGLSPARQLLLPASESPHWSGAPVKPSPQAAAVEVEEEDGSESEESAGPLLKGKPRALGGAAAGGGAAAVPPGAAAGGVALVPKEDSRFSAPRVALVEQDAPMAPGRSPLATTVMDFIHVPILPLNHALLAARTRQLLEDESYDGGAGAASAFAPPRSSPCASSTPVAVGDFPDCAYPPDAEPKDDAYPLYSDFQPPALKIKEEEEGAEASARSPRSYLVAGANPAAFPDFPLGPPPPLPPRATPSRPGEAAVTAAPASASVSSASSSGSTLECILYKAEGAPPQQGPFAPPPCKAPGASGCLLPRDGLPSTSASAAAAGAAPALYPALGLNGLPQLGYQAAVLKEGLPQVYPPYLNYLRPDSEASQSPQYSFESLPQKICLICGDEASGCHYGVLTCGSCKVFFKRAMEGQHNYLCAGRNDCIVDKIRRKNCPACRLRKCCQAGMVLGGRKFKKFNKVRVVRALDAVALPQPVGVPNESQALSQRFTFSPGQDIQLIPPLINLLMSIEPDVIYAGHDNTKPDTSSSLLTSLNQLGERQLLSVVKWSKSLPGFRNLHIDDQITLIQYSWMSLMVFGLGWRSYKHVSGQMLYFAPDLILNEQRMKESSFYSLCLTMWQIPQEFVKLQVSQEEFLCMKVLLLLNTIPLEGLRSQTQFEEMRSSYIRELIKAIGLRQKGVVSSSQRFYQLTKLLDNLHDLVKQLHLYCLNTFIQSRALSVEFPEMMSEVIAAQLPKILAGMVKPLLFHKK
Description: as §1, with “transactivative progestagenic” for “transactivative androgen”, “human progesterone” for “human androgen”, “receptor B (hPRB),” for “receptor (hAR),”, “of (16α)-16-ethyl-21-hydroxy-19-norpregn-4ene-3,20-dione” for “of 5α-dihydrotestosterone”, “et al.,” for “et aL.,”

[3] = Anti-osteoporosis test in mature male castrated rats (6 weeks treatment); assay type: in vivo, rat; conditions: for Mean proportional difference in bone density: placebo intact 100%, placebo orx 0%; for BMD (gmean ± sem): orx male rats, trabecular BMD of femur
Description: In this test the oral efficacy of a compound of the invention for the prevention of castration-induced trabecular bone mineral density (BMD) loss in male rats was evaluated.
Mature male Wistar rats (350-400 g) were used. Orchidectomy (orx) or sham operation was performed under isoflurane anaesthesia. After recovery of anaesthesia, within 24 hours, rats were treated once daily for 6 weeks p.o. with different doses of the compounds of the invention or vehicle only (placebo intact, placebo orx) with a volume of 1 ml/kg (n=5). One day after the last administration autopsy is performed and the right femur is dissected out. Trabecular bone mineral density of the metaphysal part of the femur was measured with a pQCT (peripheral Quantitative Computed Tomography machine; XCT 960A, Stratec, Birkenfeld, Germany).

[4] = prior art statement; cited from earlier work
[5] = J. Seaman, Toxicologic Pathology (1985); cited from earlier work

Row | Structure (SMILES) | LH-Suppression MAD po (serum LH) [mg/kg] | Androgenic Activity (%) [1] [%] | Progestational Activity (%) [2] [%] | oral activity (in words) (serum LH) | further results
1 | CCC1(O)CCCC2C3C(C)CC4=CC(=O)CCC4C3CCC21C [Cpd of Example 2, (7α,17aβ)-17aethyl-17a-hydroxy-7-methyl-D-homoestr-4en-3-one] | 10 | 9.9 | 29.7 |  | 
2 | CC1CC2=CC(=O)CCC2C2CCC3(C)C(CCCC3(C)O)C12 [Cpd of Example 1, (7α,17aβ)-17a-hydroxy-7,17a-dimethyl-D-homoestr4-en-3-one] | 8.5 | 42.9 | 53.3 |  | Mean proportional difference in bone density ([3]; 8 mg/kg p.o. 6 weeks): 133%; BMD (gmean ± sem) ([3]; 8 mg/kg p.o. once daily 6 weeks): 255 ± 22
3 | CCC12CCC3C4CCC(=O)C=C4CCC3C1CCCC2O [(17aβ)-13-ethyl-17a-hydroxy-D-homogon4-en-3-one] |  |  |  | not orally active | 
4 | C[C@@H]1CC2=CC(=O)CC[C@@H]2[C@H]2CC[C@@]3(C)[C@@H](CC[C@]3(C)O)[C@@H]21 [Reference compound C, (7α,17β)-17-Hydroxy-7,17-dimethylestr-4-en-3-one] | 1.0 | 220 | 45 |  | oral activity (in words) [4]: orally active; liver toxicity (in words) [5]: severe liver toxicity
5 | CCC1(O)CCCC2C3CCC4=CC(=O)CCC4C3CCC21CC [(17aβ)13,17a-diethyl-17a-hydroxy-D-homogon-4-en-3-one] |  |  |  | not orally active | 
6 | CC1(O)CCCC2C3CCC4=CC(=O)CCC4C3CCC21C [Reference compound A, (17aβ)-17a-Hydroxy-17a-methyl-D-homoestr-4-en-3-one] | >30 | 71.6 | 98.0 | low activity upon oral administration | Mean proportional difference in bone density ([3]; 16 mg/kg p.o. 6 weeks): 28%; BMD (gmean ± sem) ([3]; 16 mg/kg p.o. once daily 6 weeks): 133 ± 20; prevention of trabecular bone mineral density (BMD) loss (in words) ([3]; statement in the introduction): unable to prevent trabecular bone mineral density (BMD) loss; progestagenic activity (in words) [2]: progestagenic activity
7 | CC1CC2=CC(=O)CCC2C2CCC3(C)C(O)CCCC3C12 [Reference compound B, (7α,17aβ)-17a-Hydroxy-7-methyl-D-homoestr-4-en-3-one] | >30 | 25.3 | 10.6 | not orally active | androgenic activity (in words) ([1]; statement in the introduction, test not named): mixed androgenic and progestagenic profile; progestagenic activity (in words) [2]: mixed androgenic and progestagenic profile
8 | CCC12CCC3C4CCC(=O)C=C4CCC3C1CCCC2(C)O [(17aβ)-13-ethyl-17a-hydroxy-17a-methyl-D-homogon-4-en-3-one] |  |  |  | not orally active | 
